From US20250221979A1, “NOVEL HETEROCYCLIC COMPOUND” (SHOUYAO HOLDINGS (BEIJING) CO., LTD., priority 2022, published 2025)

Target: human MAT2A enzyme (Homo sapiens (Human), UniProt P31153)
Experiment: In vitro enzymatic inhibition activity assay on MAT2A (PiColorLock phosphate detection)
Type: biochemical
Details: purified human MAT2A 10 nM, ATP 50 μM, L-methionine 100 μM, 6 h at 23° C.; read-out: MAT2A inhibitory activity IC50
Protocol: Enzymatic activity assays of compounds of this patent against MAT2A (to detect half inhibitory concentration IC50 values of the compounds) were performed using the phosphate detection kit PiColorLockTM (ab270004, purchased from Abcam). This method utilized the principle that purified human MAT2A enzyme catalyzes the formation of S-adenosylmethionine (SAM) from L-methionine and ATP to release free phosphate, and used the spectrophotometric method to quantify phosphate, so as to determine the enzymatic activity of MAT2A. Compounds were diluted in a 10-fold gradient starting at 1 mM with 100% DMSO (for a total of 8 concentrations) and 2 μL of each concentration was added to 48 μL of reaction buffer (50 mM Tris-HCl PH 7.5, 50 mM KCl, 10 mM MgCl2, 0.01% Brij-35, 0.01% BSA, 1 mM DTT) and mixed well. The final diluted compound was prepared, and 5 μL of MAT2A enzyme (final concentration of 10 nM), 5 μL of ATP (final concentration of 50 μM), and 5 μL of L-methionine (final concentration of 100 μM) were added to each well of a 384-well plate (#3701, purchased from CORNING). After the 384-well plate was placed in the incubator at 23° C. for 6 h, 5 μL of PiColorLock reagent diluted Accelerator (dilution ratio 1:100) was added to each well, and the reaction was stopped by incubating in the incubator at 23° C. for 5 min. 2 μL of Stabiliser was added, the absorbance was read at 630 nm on BMG CLARIOstar, and the IC50 value of the compound was calculated by using GraphPad Prism software.
Under the conditions of this experiment, the inhibition of MAT2A by test compounds can be expressed as an IC50 value for the inhibition of the level of phosphate production during the enzymatic reaction.

human MAT2A enzyme, sequence (P31153 whole entry): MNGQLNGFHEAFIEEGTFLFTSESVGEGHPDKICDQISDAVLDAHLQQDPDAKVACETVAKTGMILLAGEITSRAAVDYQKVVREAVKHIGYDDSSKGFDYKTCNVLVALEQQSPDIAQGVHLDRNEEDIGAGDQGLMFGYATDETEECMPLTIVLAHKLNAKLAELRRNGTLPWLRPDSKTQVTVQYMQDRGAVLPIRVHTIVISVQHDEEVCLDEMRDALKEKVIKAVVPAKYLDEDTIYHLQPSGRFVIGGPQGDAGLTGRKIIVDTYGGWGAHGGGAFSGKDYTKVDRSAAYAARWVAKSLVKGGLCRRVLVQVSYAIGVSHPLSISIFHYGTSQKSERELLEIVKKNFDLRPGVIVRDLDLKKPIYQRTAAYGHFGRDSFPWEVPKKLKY

Row | IC50 | SMILES
1 | 1.58 nM | COC(=O)c1c(N)c2ccc(C(F)(F)F)cc2n(-c2ccc(OC(F)F)cc2)c1=O [Example 63, methyl 4-amino-1-(4-(difluoromethoxy)phenyl)-2-oxo-7-(trifluoromethyl)-1,2-dihydroquinoline-3-carboxylate]
2 | 0.92 nM | COC(=O)c1c(N)c2ccc(C(F)(F)F)nc2n(-c2ccc(C(C)O)cc2)c1=O (centres unmarked) [Example 303, methyl 4-amino-1-(4-(1-hydroxyethyl)phenyl)-2-oxo-7-(trifluoromethyl)-1,2-dihydro-1,8-naphthyridine-3-carboxylate]
3 | 2.72 nM | COC(=O)c1c(N)c2ccc(Br)cc2n(-c2ccc(F)cc2)c1=O [Example 78, methyl 4-amino-7-bromo-1-(4-fluorophenyl)-2-oxo-1,2-dihydroquinoline-3-carboxylate]
4 | 4.03 nM | COC(=O)c1c(N)c2ccc(C(F)(F)F)cc2n(-c2ccc(OC)cc2C)c1=O [Example 80, methyl 4-amino-1-(4-methoxy-2-methylphenyl)-2-oxo-7-(trifluoromethyl)-1,2-dihydroquinoline-3-carboxylate]
5 | 2.5 nM | COC(=O)c1c(N)c2ccc(C(F)(F)F)cc2n(-c2ccc(C)nc2)c1=O [Example 215, methyl 4-amino-1-(6-methylpyridin-3-yl)-2-oxo-7-(trifluoromethyl)-1,2-dihydroquinoline-3-carboxylate]
6 | 0.79 nM | COC(=O)c1c(N)c2ccc(Br)nc2n(-c2cccc3c(C)nccc23)c1=O [Example 290, methyl 4-amino-1-(1-methylisoquinolin-5-yl)-7-bromo-2-oxo-1,2-dihydro-1,8-naphthyridine-3-carboxylate]
7 | 2.83 nM | COC(=O)c1c(N)c2ccc(C(F)(F)F)cc2n(-c2ccc3c(c2)CCC3(C)O)c1=O (centres unmarked) [Example 148, methyl 4-amino-1-(1-hydroxy-1-methyl-2,3-dihydro-1H-inden-5-yl)-2-oxo-7-(trifluoromethyl)-1,2-dihydroquinoline-3-carboxylate]
8 | 2.62 nM | COC(=O)c1c(N)c2ccc(C(F)(F)F)cc2n(-c2ccc3sccc3c2)c1=O [Example 153, methyl 4-amino-1-(benzo[b]thiophen-5-yl)-2-oxo-7-(trifluoromethyl)-1,2-dihydroquinoline-3-carboxylate]
9 | 1.69 nM | COC(=O)c1c(N)c2ccc(Br)nc2n(-c2ccc(Cl)nc2C)c1=O [Example 248, methyl 4-amino-7-bromo-1-(6-chloro-2-methylpyridin-3-yl)-2-oxo-1,2-dihydro-1,8-naphthyridine-3-carboxylate]
10 | 1.31 nM | COC(=O)c1c(N)c2ccc(Br)nc2n(-c2ccc(C)nc2)c1=O [Example 258, methyl 4-amino-7-bromo-1-(6-methylpyridin-3-yl)-2-oxo-1,2-dihydro-1,8-naphthyridine-3-carboxylate]
11 | 2.02 nM | COC(=O)c1c(N)c2ccc(C(F)(F)F)nc2n(-c2ccc3nccn3c2)c1=O [Example 309, methyl 4-amino-1-(imidazo[3,2-a]pyridin-6-yl)-2-oxo-7-(trifluoromethyl)-1,2-dihydro-1,8-naphthyridine-3-carboxylate]
12 | 3.34 nM | COC(=O)c1c(N)c2ccc(C(F)(F)F)cc2n(-c2ccc3c(c2)C(O)CC3)c1=O (centres unmarked) [Example 137, methyl 4-amino-1-(3-hydroxy-2,3-dihydro-1H-inden-5-yl)-2-oxo-7-(trifluoromethyl)-1,2-dihydroquinoline-3-carboxylate]
13 | 0.54 nM | COC(=O)c1c(N)c2ccc(C(F)F)cc2n(-c2ccc([C@@H](C)O)cc2)c1=O [Example 357, methyl (R)-4-amino-7-(difluoromethyl)-1-(4-(1-hydroxyethyl)phenyl)-2-oxo-1,2-dihydroquinoline-3-carboxylate]
14 | 1.72 nM | COC(=O)c1c(N)c2ccc(Br)nc2n(-c2cnc(N)cc2C)c1=O [Example 280, methyl 4-amino-1-(6-amino-4-methylpyridin-3-yl)-7-bromo-2-oxo-1,2-dihydro-1,8-naphthyridine-3-carboxylate]
15 | 1.26 nM | COC(=O)c1c(N)c2ccc(I)cc2n(-c2ccc3ccncc3c2)c1=O [Example 242, methyl 4-amino-7-iodo-1-(isoquinolin-7-yl)-2-oxo-1,2-dihydroquinoline-3-carboxylate]
16 | 1.15 nM | [2H]C([2H])([2H])OC(=O)c1c(N)c2ccc(OC(F)F)cc2n(-c2ccc(N)cc2C)c1=O [Example 429, methyl-d3 4-amino-1-(2-methyl-4-aminophenyl)-7-(difluoromethoxy)-2-oxo-1,2-dihydroquinolin-3-carboxylate]

Row | IC50 | SMILES
17 | 5.99 nM | COC(=O)c1c(N)c2ccc(Br)cc2n(-c2ccc([N+](=O)[O-])cc2)c1=O [Example 130, methyl 4-amino-2-oxo-7-bromo-1-(4-nitrophenyl)-1,2-dihydroquinoline-3-carboxylate]
18 | 2.34 nM | C=Cc1ccc2c(N)c(C(=O)OC)c(=O)n(-c3ccccc3)c2c1 [Example 24, methyl 4-amino-7-vinyl-2-oxo-1-phenyl-1,2-dihydroquinoline-3—carboxylate]
19 | 1.33 nM | COC(=O)c1c(N)c2ccc(C(F)(F)F)nc2n(-c2ccc([C@@H](C)O)cc2)c1=O [Example 348, methyl 4-amino-(1-(4-(1R)-1-hydroxyethyl)phenyl)-7-(trifluoromethyl)-2-oxo-pyrido[2,3-b]pyridin-3-carboxylate]
20 | 2.86 nM | COC(=O)c1c(N)c2ccc(C(F)(F)F)cc2n(-c2ccc(Cl)cc2C)c1=O [Example 151, methyl 4-amino-1-(4-chloro-2-methylphenyl)-2-oxo-7-(trifluoromethyl)-1,2-dihydroquinoline-3-carboxylate]
21 | 1.96 nM | COC(=O)c1c(N)c2ccc(I)cc2n(-c2ccc(Cl)c3cnccc23)c1=O [Example 227, methyl 4-amino-1-(8-chloroisoquinolin-5-yl)-7-iodo-2-oxo-1,2-dihydroquinoline-3-carboxylate]
22 | 0.15 nM | COC(=O)c1c(N)c2ccc(Br)nc2n(-c2ccc(I)cc2)c1=O [Example 275, methyl 4-amino-7-bromo-1-(4-iodophenyl)-2-oxo-1,2-dihydro-1,8-naphthyridine-3-carboxylate]
23 | 1.88 nM | COC(=O)c1c(N)c2ccc(NCC(F)(F)F)nc2n(-c2ccc(C)nc2)c1=O [Example 382, methyl 4-amino-1-(6-methylpyridin-3-yl)-2-oxo-7-((2,2,2-trifluoroethyl)amino)-1,2-dihydro-1,8-naphthyridine-3-carboxylate]
24 | 0.43 nM | COC(=O)c1c(N)c2ccc(I)cc2n(-c2ccc(C(C)O)cc2)c1=O (centres unmarked) [Example 298, methyl 4-amino-1-(4-(1-hydroxyethyl)phenyl)-2-oxo-7-iodo-1,2-dihydroquinoline-3-carboxylate]
25 | 2.34 nM | COC(=O)c1c(N)c2ccc(I)cc2n(-c2ccccc2C)c1=O [Example 19, methyl 4-amino-7-iodo-1-(2-methylphenyl)-2-oxo-1,2-dihydroquinoline-3-carboxylate]
26 | 1.2 nM | COC(=O)c1c(N)c2ccc(C(F)(F)F)nc2n(-c2cccc3c(C)nccc23)c1=O [Example 319, methyl 4-amino-1-(1-methylisoquinolin-5-yl)-2-oxo-7-(trifluoromethyl)-1,2-dihydro-1,8-naphthyridine-3-carboxylate]
27 | 1.42 nM | COC(=O)c1c(N)c2ccc(Br)nc2n(-c2ccc(N)nc2)c1=O [Example 241, methyl 4-amino-1-(6-aminopyridin-3-yl)-7-bromo-2-oxo-1,2-dihydro-1,8-naphthyridine-3-carboxylate]
28 | 0.53 nM | COC(=O)c1c(N)c2ccc(C(F)(F)F)nc2n(-c2ccc(N)cc2)c1=O [Example 274, methyl 4-amino-1-(4-aminophenyl)-2-oxo-7-(trifluoromethyl)-1,2-dihydro-1,8-naphthyridine-3-carboxylate]
29 | 2.58 nM | COC(=O)c1c(N)c2ccc(Br)cc2n(-c2ccc(C(C)O)nc2)c1=O (centres unmarked) [Example 352, methyl 4-amino-7-bromo-1-(6-(1-hydroxyethyl)pyridin-3-yl)-2-oxo-1,2-dihydroquinoline-3-carboxylate]
30 | 4.91 nM | COC(=O)c1c(N)c2ccc(Br)cc2n(-c2cccc3nccn23)c1=O [Example 195, methyl 4-amino-7-bromo-1-(imidazo(3,2-a)pyridin-5-yl)-2-oxo-1,2-dihydro quinoline-3-carboxylate]
31 | 2 nM | COC(=O)c1c(N)c2ccc(Br)nc2n(-c2cnc(Cl)cc2C)c1=O [Example 296, methyl 4-amino-7-bromo-1-(6-chloro-4-methylpyridin-3-yl)-2-oxo-1,2-dihydro-1,8-naphthyridine-3-carboxylate]
32 | 1.45 nM | COC(=O)c1c(N)c2ccc(Br)c(F)c2n(-c2ccc(N)cc2)c1=O [Example 338, methyl 4-amino-1-(4-aminophenyl)-7-bromo-8-fluoro-2-oxo-1,2-dihydroquinoline-3-carboxylate]
